{"source": "paper PMC9898036", "about": "“VIP152 is a selective CDK9 inhibitor with pre-clinical in vitro and in vivo efficacy in chronic lymphocytic leukemia” (Leukemia, 2022)", "assay_in_all_cases": "DiscoverX KINOMEscan kinase profiling (468 assays)", "type_in_all_cases": "binding", "key": {"human kinome [1]": {"biological_target": "human kinome (Homo sapiens, UniProt Q9Y243)", "conditions": "AKT3; 100 nM; read-out: Percent Control", "how_it_was_run": "(§1)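 VIP152 was run in DMSO, alongside a DMSO control. Readout was qPCR of DNA-tagged kinase still bound to bead-immobilized biotinylated kinase ligands after compound competition.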"}, "human kinome [2]": {"biological_target": "human kinome (Homo sapiens, UniProt Q12866)", "conditions": "MERTK; 100 nM; read-out: Percent Control", "how_it_was_run": "as §1"}, "human kinome [3]": {"biological_target": "human kinome (Homo sapiens, UniProt Q9BZL6)", "sequence (Q9BZL6 whole entry)": "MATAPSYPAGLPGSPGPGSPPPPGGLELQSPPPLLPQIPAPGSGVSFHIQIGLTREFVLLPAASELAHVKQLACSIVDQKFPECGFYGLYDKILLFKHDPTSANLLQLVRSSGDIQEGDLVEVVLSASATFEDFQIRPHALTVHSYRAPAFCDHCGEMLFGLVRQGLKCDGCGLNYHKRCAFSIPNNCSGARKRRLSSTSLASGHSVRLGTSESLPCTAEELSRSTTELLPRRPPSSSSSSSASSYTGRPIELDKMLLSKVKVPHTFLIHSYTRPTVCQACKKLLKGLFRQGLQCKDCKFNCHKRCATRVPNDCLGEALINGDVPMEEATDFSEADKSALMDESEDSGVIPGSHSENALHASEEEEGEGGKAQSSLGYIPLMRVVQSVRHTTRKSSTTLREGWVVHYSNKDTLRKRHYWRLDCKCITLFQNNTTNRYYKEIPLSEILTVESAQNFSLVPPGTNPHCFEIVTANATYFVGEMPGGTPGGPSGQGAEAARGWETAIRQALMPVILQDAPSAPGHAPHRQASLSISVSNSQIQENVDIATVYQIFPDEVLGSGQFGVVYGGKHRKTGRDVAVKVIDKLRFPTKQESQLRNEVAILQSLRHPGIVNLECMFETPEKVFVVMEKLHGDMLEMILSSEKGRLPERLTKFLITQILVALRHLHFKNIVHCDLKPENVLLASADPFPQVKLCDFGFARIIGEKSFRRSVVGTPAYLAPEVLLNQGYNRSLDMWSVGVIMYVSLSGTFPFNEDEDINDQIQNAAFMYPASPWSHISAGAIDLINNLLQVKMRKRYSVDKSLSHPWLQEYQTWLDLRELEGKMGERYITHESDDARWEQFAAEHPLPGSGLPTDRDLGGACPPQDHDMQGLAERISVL", "conditions": "read-out: Percent Control", "how_it_was_run": "as §1"}, "human kinome [4]": {"biological_target": "human kinome (Homo sapiens, UniProt O95835)", "conditions": "LATS1; 100 nM; read-out: Percent Control", "how_it_was_run": "as §1"}, "human kinome [5]": {"biological_target": "human kinome (Homo sapiens, UniProt Q99759)", "conditions": "MAP3K3; 100 nM; read-out: Percent Control", "how_it_was_run": "as §1"}, "human kinome [6]": {"biological_target": "human kinome (Homo sapiens, UniProt Q00535)", "conditions": "CDK5; 100 nM; read-out: Percent Control", "how_it_was_run": "as §1"}, "human kinome [7]": {"biological_target": "human kinome (Homo sapiens, UniProt Q12852)", "conditions": "DLK (Entrez MAP3K12); 100 nM; read-out: Percent Control", "how_it_was_run": "as §1"}, "human kinome [8]": {"biological_target": "human kinome (Homo sapiens, UniProt P32298)", "conditions": "GRK4; 100 nM; read-out: Percent Control", "how_it_was_run": "as §1"}, "human kinome [9]": {"biological_target": "human kinome (Homo sapiens, UniProt P42336, M1043I)", "sequence (P42336 whole entry M1043I)": "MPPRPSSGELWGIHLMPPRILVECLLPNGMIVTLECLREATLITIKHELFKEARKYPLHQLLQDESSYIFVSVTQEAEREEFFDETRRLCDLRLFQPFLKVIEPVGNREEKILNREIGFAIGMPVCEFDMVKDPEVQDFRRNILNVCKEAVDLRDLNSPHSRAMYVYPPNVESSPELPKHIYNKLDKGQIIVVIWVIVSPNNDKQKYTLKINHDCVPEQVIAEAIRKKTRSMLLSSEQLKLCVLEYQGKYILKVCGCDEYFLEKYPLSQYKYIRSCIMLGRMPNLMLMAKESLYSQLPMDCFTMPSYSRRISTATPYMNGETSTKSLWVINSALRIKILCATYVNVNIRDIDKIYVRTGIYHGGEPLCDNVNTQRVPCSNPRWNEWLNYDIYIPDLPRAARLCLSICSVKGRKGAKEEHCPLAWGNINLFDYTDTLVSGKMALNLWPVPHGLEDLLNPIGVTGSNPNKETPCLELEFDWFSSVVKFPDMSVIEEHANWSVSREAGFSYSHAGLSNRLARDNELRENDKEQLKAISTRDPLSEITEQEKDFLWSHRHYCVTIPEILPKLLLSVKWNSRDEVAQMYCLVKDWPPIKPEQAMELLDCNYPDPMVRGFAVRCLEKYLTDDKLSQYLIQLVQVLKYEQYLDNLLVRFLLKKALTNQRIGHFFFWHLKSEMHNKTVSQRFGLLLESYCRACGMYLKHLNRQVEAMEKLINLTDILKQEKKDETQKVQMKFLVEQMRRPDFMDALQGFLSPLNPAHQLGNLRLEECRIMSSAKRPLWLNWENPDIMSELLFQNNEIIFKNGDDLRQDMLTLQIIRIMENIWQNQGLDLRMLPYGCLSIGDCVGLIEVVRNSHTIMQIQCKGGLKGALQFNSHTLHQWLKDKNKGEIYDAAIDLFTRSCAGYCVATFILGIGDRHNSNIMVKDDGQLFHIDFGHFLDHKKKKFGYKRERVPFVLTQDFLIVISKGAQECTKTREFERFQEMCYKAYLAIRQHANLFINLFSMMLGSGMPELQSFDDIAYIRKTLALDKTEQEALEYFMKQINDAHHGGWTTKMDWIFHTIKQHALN", "conditions": "read-out: Percent Control", "how_it_was_run": "as §1"}, "human kinome [10]": {"biological_target": "human kinome (Homo sapiens, UniProt Q99558)", "sequence (Q99558 whole entry)": "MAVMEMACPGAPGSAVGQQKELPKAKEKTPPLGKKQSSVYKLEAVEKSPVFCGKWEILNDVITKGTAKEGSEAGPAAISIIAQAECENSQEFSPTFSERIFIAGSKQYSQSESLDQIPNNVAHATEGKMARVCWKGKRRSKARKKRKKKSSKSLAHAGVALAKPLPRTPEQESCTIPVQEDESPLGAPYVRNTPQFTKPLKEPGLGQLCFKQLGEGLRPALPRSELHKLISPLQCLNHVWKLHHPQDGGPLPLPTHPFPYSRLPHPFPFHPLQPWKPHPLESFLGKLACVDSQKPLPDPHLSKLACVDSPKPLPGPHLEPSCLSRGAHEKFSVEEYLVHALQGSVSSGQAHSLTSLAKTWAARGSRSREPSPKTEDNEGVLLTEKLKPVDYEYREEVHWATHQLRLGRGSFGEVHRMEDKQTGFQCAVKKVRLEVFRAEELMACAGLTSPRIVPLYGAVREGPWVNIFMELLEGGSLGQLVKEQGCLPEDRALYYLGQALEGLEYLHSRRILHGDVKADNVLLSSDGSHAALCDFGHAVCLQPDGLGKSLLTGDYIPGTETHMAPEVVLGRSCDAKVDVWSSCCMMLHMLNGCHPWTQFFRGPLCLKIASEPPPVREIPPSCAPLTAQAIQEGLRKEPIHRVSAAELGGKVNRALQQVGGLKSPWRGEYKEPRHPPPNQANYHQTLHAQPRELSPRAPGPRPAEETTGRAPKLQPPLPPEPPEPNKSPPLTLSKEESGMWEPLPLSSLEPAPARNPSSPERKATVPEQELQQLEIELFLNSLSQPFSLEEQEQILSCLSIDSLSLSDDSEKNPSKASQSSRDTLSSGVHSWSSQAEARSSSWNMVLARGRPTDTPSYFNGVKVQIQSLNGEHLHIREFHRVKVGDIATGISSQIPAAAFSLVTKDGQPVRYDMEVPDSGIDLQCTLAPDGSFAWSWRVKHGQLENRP", "conditions": "read-out: Percent Control", "how_it_was_run": "as §1"}, "human kinome [11]": {"biological_target": "human kinome (Homo sapiens, UniProt Q8IU85)", "conditions": "CAMK1D; 100 nM; read-out: Percent Control", "how_it_was_run": "as §1"}, "human kinome [12]": {"biological_target": "human kinome (Homo sapiens, UniProt O14920)", "conditions": "IKK-beta (Entrez IKBKB); 100 nM; read-out: Percent Control", "how_it_was_run": "as §1"}, "human kinome [13]": {"biological_target": "human kinome (Homo sapiens, UniProt P11309)", "sequence (P11309 whole entry)": "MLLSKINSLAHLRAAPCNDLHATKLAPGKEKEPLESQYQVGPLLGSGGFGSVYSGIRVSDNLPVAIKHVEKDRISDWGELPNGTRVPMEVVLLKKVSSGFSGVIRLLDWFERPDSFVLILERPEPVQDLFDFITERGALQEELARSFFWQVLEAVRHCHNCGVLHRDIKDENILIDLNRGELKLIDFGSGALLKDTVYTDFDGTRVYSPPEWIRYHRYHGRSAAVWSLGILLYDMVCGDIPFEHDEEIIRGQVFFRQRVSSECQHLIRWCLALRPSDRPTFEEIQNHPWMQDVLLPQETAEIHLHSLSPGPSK", "conditions": "read-out: Percent Control", "how_it_was_run": "as §1"}, "human kinome [14]": {"biological_target": "human kinome (Homo sapiens, UniProt P36894)", "conditions": "BMPR1A; 100 nM; read-out: Percent Control", "how_it_was_run": "as §1"}, "human kinome [15]": {"biological_target": "human kinome (Homo sapiens, UniProt P78368)", "conditions": "CSNK1G2; 100 nM; read-out: Percent Control", "how_it_was_run": "as §1"}, "human kinome [16]": {"biological_target": "human kinome (Homo sapiens, UniProt P07949, V804M)", "conditions": "kinase RET(V804M) (Entrez RET); compound concentration 1000 nM; read-out: Percent Control", "how_it_was_run": "as §1"}, "human kinome [17]": {"biological_target": "human kinome (Homo sapiens, UniProt P53779)", "conditions": "JNK3 (Entrez MAPK10); 100 nM; read-out: Percent Control", "how_it_was_run": "as §1"}, "human kinome [18]": {"biological_target": "human kinome (Homo sapiens, UniProt Q9P289)", "conditions": "MST4; 100 nM; read-out: Percent Control", "how_it_was_run": "as §1"}, "human kinome [19]": {"biological_target": "human kinome (Homo sapiens, UniProt Q8IWQ3)", "conditions": "BRSK2; 100 nM; read-out: Percent Control", "how_it_was_run": "as §1"}, "human kinome [20]": {"biological_target": "human kinome (Homo sapiens, UniProt P36888, D835V)", "conditions": "FLT3(D835V); 100 nM; read-out: Percent Control", "how_it_was_run": "as §1"}, "human kinome [21]": {"biological_target": "human kinome (Homo sapiens, UniProt Q14164)", "conditions": "IKK-epsilon (Entrez IKBKE); 100 nM; read-out: Percent Control", "how_it_was_run": "as §1"}, "human kinome [22]": {"biological_target": "human kinome (Homo sapiens, UniProt Q04759)", "conditions": "read-out: Percent Control", "how_it_was_run": "as §1"}, "human kinome [23]": {"biological_target": "human kinome (Homo sapiens, UniProt Q00532)", "conditions": "CDKL1; 100 nM; read-out: Percent Control", "how_it_was_run": "as §1"}, "human kinome [24]": {"biological_target": "human kinome (Homo sapiens, UniProt P15056)", "conditions": "BRAF; 100 nM; read-out: Percent Control", "how_it_was_run": "as §1"}, "human kinome [25]": {"biological_target": "human kinome (Homo sapiens, UniProt P09619)", "sequence (P09619 33-1106)": "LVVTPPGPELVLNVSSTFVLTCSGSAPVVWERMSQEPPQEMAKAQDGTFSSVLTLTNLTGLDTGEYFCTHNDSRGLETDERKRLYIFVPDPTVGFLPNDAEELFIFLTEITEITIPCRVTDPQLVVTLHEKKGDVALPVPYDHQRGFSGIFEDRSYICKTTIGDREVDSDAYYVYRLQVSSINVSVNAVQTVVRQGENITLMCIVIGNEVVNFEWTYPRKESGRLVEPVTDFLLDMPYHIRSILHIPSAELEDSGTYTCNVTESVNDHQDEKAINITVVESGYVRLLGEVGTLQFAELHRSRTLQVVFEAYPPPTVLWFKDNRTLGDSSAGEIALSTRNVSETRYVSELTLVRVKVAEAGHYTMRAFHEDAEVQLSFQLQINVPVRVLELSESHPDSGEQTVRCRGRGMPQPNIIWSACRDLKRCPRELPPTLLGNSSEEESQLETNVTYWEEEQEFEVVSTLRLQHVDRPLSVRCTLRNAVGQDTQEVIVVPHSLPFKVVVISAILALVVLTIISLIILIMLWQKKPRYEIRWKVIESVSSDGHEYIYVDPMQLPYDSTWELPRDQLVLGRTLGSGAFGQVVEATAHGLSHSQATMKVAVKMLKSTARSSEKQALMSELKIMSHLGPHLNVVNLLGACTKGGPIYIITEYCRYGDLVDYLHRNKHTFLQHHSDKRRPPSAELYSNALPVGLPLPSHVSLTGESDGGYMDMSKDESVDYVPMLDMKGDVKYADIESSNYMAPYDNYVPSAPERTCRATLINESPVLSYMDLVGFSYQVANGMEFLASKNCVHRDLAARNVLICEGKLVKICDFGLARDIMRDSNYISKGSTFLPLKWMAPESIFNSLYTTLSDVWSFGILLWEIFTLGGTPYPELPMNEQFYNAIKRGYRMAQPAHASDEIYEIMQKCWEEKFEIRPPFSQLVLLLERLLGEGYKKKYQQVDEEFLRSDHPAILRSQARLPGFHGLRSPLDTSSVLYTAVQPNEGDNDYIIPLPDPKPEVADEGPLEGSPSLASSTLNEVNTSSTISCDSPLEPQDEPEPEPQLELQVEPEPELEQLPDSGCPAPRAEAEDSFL", "conditions": "read-out: Percent Control", "how_it_was_run": "as §1"}, "human kinome [26]": {"biological_target": "human kinome (Homo sapiens, UniProt P0C1S8)", "conditions": "kinase WEE2 (Entrez WEE2); compound concentration 1000 nM; read-out: Percent Control", "how_it_was_run": "as §1"}, "human kinome [27]": {"biological_target": "human kinome (Homo sapiens, UniProt P36896)", "conditions": "ACVR1B; 100 nM; read-out: Percent Control", "how_it_was_run": "as §1"}, "human kinome [28]": {"biological_target": "human kinome (Homo sapiens, UniProt O15264)", "sequence (O15264 whole entry)": "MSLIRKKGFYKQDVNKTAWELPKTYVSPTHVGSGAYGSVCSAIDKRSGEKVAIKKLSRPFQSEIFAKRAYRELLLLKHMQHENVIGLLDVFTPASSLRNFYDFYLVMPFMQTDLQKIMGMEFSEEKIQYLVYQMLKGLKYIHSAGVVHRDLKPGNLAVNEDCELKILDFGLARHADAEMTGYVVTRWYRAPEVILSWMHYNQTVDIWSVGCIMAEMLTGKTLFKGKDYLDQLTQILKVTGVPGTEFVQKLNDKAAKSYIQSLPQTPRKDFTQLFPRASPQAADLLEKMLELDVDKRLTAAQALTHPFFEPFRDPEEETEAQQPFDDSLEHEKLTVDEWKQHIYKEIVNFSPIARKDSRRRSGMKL", "conditions": "read-out: Percent Control", "how_it_was_run": "as §1"}, "human kinome [29]": {"biological_target": "human kinome (Homo sapiens, UniProt P78356)", "sequence (P78356 whole entry)": "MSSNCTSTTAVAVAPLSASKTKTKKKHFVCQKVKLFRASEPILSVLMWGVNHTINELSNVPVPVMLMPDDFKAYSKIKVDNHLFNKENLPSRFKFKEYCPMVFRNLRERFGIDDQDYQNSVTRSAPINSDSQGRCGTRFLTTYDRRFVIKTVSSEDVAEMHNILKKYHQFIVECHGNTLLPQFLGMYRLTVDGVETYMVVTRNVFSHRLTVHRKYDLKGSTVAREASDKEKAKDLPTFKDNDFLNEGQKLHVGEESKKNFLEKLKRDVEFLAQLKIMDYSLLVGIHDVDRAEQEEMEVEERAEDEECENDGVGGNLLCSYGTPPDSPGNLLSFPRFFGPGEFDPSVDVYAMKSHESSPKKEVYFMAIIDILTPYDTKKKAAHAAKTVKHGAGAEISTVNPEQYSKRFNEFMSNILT", "conditions": "read-out: Percent Control", "how_it_was_run": "as §1"}, "human kinome [30]": {"biological_target": "human kinome (Homo sapiens, UniProt P36507)", "conditions": "MEK2 (Entrez MAP2K2); 100 nM; read-out: Percent Control", "how_it_was_run": "as §1"}}, "data": [{"smiles": "COc1cc(F)ccc1-c1cc(Nc2cc(CS(C)(=N)=O)ccn2)ncc1F", "note": "(centres unmarked) [VIP152]", "values": [{"measurement": "remaining binding at 0.1 µM", "setting": "human kinome [1]", "result": 100, "unit": "%"}, {"measurement": "remaining binding at 0.1 µM", "setting": "human kinome [2]", "result": 100, "unit": "%"}, {"measurement": "remaining binding at 0.1 µM", "setting": "human kinome [3]; PRKD2, 100 nM", "result": 90, "unit": "%"}, {"measurement": "remaining binding at 1 µM", "setting": "human kinome [3]; kinase PRKD2 (Entrez PRKD2), compound concentration 1000 nM", "result": 88, "unit": "%"}, {"measurement": "remaining binding at 0.1 µM", "setting": "human kinome [4]", "result": 100, "unit": "%"}, {"measurement": "remaining binding at 0.1 µM", "setting": "human kinome [5]", "result": 100, "unit": "%"}, {"measurement": "remaining binding at 0.1 µM", "setting": "human kinome [6]", "result": 100, "unit": "%"}, {"measurement": "remaining binding at 0.1 µM", "setting": "human kinome [7]", "result": 100, "unit": "%"}, {"measurement": "remaining binding at 0.1 µM", "setting": "human kinome [8]", "result": 88, "unit": "%"}, {"measurement": "remaining binding at 0.1 µM", "setting": "human kinome [9]; PIK3CA(M1043I), 100 nM", "result": 100, "unit": "%"}, {"measurement": "remaining binding at 1 µM", "setting": "human kinome [9]; kinase PIK3CA(M1043I) (Entrez PIK3CA), compound concentration 1000 nM", "result": 84, "unit": "%"}, {"measurement": "remaining binding at 0.1 µM", "setting": "human kinome [10]; NIK (Entrez MAP3K14), 100 nM", "result": 87, "unit": "%"}, {"measurement": "remaining binding at 1 µM", "setting": "human kinome [10]; kinase NIK (Entrez MAP3K14), compound concentration 1000 nM", "result": 88, "unit": "%"}, {"measurement": "remaining binding at 0.1 µM", "setting": "human kinome [11]", "result": 100, "unit": "%"}, {"measurement": "remaining binding at 0.1 µM", "setting": "human kinome [12]", "result": 100, "unit": "%"}, {"measurement": "remaining binding at 0.1 µM", "setting": "human kinome [13]; PIM1, 100 nM", "result": 100, "unit": "%"}, {"measurement": "remaining binding at 1 µM", "setting": "human kinome [13]; kinase PIM1 (Entrez PIM1), compound concentration 1000 nM", "result": 100, "unit": "%"}, {"measurement": "remaining binding at 0.1 µM", "setting": "human kinome [14]", "result": 100, "unit": "%"}, {"measurement": "remaining binding at 0.1 µM", "setting": "human kinome [15]", "result": 100, "unit": "%"}, {"measurement": "remaining binding at 1 µM", "setting": "human kinome [16]", "result": 92, "unit": "%"}, {"measurement": "remaining binding at 0.1 µM", "setting": "human kinome [17]", "result": 94, "unit": "%"}, {"measurement": "remaining binding at 0.1 µM", "setting": "human kinome [18]", "result": 100, "unit": "%"}, {"measurement": "remaining binding at 0.1 µM", "setting": "human kinome [19]", "result": 99, "unit": "%"}, {"measurement": "remaining binding at 0.1 µM", "setting": "human kinome [20]", "result": 100, "unit": "%"}, {"measurement": "remaining binding at 0.1 µM", "setting": "human kinome [21]", "result": 100, "unit": "%"}, {"measurement": "remaining binding at 0.1 µM", "setting": "human kinome [22]; PRKCQ, 100 nM", "result": 100, "unit": "%"}, {"measurement": "remaining binding at 1 µM", "setting": "human kinome [22]; kinase PRKCQ (Entrez PRKCQ), compound concentration 1000 nM", "result": 62, "unit": "%"}, {"measurement": "remaining binding at 0.1 µM", "setting": "human kinome [23]", "result": 69, "unit": "%"}, {"measurement": "remaining binding at 0.1 µM", "setting": "human kinome [24]", "result": 100, "unit": "%"}, {"measurement": "remaining binding at 0.1 µM", "setting": "human kinome [25]; PDGFRB, 100 nM", "result": 100, "unit": "%"}, {"measurement": "remaining binding at 1 µM", "setting": "human kinome [25]; kinase PDGFRB (Entrez PDGFRB), compound concentration 1000 nM", "result": 71, "unit": "%"}, {"measurement": "remaining binding at 1 µM", "setting": "human kinome [26]", "result": 89, "unit": "%"}, {"measurement": "remaining binding at 0.1 µM", "setting": "human kinome [27]", "result": 100, "unit": "%"}, {"measurement": "remaining binding at 1 µM", "setting": "human kinome [28]; kinase p38-delta (Entrez MAPK13), compound concentration 1000 nM", "result": 98, "unit": "%"}, {"measurement": "remaining binding at 0.1 µM", "setting": "human kinome [28]; p38-delta (Entrez MAPK13), 100 nM", "result": 100, "unit": "%"}, {"measurement": "remaining binding at 0.1 µM", "setting": "human kinome [29]; PIP5K2B (Entrez PIP4K2B), 100 nM", "result": 100, "unit": "%"}, {"measurement": "remaining binding at 1 µM", "setting": "human kinome [29]; kinase PIP5K2B (Entrez PIP4K2B), compound concentration 1000 nM", "result": 100, "unit": "%"}, {"measurement": "remaining binding at 0.1 µM", "setting": "human kinome [30]", "result": 100, "unit": "%"}]}]}
